Where “and” joins values, the source holds several entries; their conditions need not be identical. Equal values may be shown once. Toxic doses and inconclusive results are not listed. The calls were made as follows: active = survival T/C of 150% or more; inactive = T/C below 125% in these data.
Tested on: P388 leukemia ip, CD2F1 mice, survival T/C
Assay: NCI In Vivo Anticancer Drug Screen. Data for tumor model P388 Leukemia (intraperitoneal) in CD2F1 (CDF1) mice
Conditions: endpoint: median survival time, higher = longer survival
In short: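 Mice carrying the transplanted tumor received test compound or vehicle. Survival was recorded in each group, and the value is the treated-group measurement divided by that of the vehicle-treated control group.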

[1] = dose: 50.0 mg/kg/injection, schedule: Q01DX009 (ip), vehicle: saline
[2] = dose: 100.0 mg/kg/injection, schedule: Q01DX009 (ip), vehicle: saline
[3] = dose: 25.0 mg/kg/injection, schedule: Q01DX005 (ip), vehicle: Klucel (hydroxypropylcellulose) (HPC)
[4] = dose: 50.0 mg/kg/injection, schedule: Q01DX005 (ip), vehicle: Klucel (hydroxypropylcellulose) (HPC)
[5] = dose: 100.0 mg/kg/injection, schedule: Q01DX005 (ip), vehicle: Klucel (hydroxypropylcellulose) (HPC)
[6] = dose: 200.0 mg/kg/injection, schedule: Q01DX005 (ip), vehicle: Klucel (hydroxypropylcellulose) (HPC)
[7] = dose: 50.0 mg/kg/injection, schedule: Q01DX009 (ip), vehicle: Klucel (hydroxypropylcellulose) (HPC)
[8] = dose: 100.0 mg/kg/injection, schedule: Q01DX009 (ip), vehicle: Klucel (hydroxypropylcellulose) (HPC)
[9] = dose: 25.0 mg/kg/injection, schedule: Q01DX009 (ip), vehicle: other
[10] = dose: 50.0 mg/kg/injection, schedule: Q01DX009 (ip), vehicle: other
[11] = dose: 100.0 mg/kg/injection, schedule: Q01DX009 (ip), vehicle: other
[12] = dose: 200.0 mg/kg/injection, schedule: Q01DX009 (ip), vehicle: other
[13] = dose: 400.0 mg/kg/injection, schedule: Q01DX009 (ip), vehicle: other
[14] = dose: 200.0 mg/kg/injection, schedule: Q01DX009 (ip), vehicle: Klucel (hydroxypropylcellulose) (HPC)
[15] = dose: 100.0 mg/kg/injection, schedule: Q01DX001 (ip), vehicle: saline with Tween-80
[16] = dose: 200.0 mg/kg/injection, schedule: Q01DX001 (ip), vehicle: saline with Tween-80
[17] = dose: 400.0 mg/kg/injection, schedule: Q01DX001 (ip), vehicle: saline with Tween-80

Measured: T/C

O=C(N=[N+]([O-])c1ccccc1)c1ccccc1
inactive: dose: 3.12 mg/kg/injection, schedule: Q01DX001 (ip), vehicle: saline with Tween-80 107 % of control | dose: 6.25 mg/kg/injection, schedule: Q01DX001 (ip), vehicle: saline with Tween-80 110 % of control | dose: 6.25 mg/kg/injection, schedule: Q04DX003 (ip), vehicle: saline with Tween-80 109 % of control and 118 % of control | dose: 12.5 mg/kg/injection, schedule: Q01DX001 (ip), vehicle: saline with Tween-80 99 % of control | dose: 12.5 mg/kg/injection, schedule: Q04DX003 (ip), vehicle: saline with Tween-80 114 % of control and 117 % of control | dose: 25.0 mg/kg/injection, schedule: Q04DX003 (ip), vehicle: saline with Tween-80 89 % of control and 95 % of control

C=CCN(CC=C)Sc1cccc([N+](=O)[O-])c1
inactive: [1] 109 % of control | [2] 117 % of control

O=C1C=CN(C2OC(CO)C(O)C2O)C(=O)C1 (stereo not given)
inactive: dose: 11.0 mg/kg/injection, schedule: Q01DX009 (ip), vehicle: saline 117 % of control | dose: 16.0 mg/kg/injection, schedule: Q01DX009 (ip), vehicle: saline 122 % of control | dose: 22.0 mg/kg/injection, schedule: Q01DX009 (ip), vehicle: saline 120 % of control and 122 % of control and 124 % of control | dose: 33.0 mg/kg/injection, schedule: Q01DX009 (ip), vehicle: saline 109 % of control and 119 % of control and 120 % of control | [1] 118 % of control and 124 % of control

COc1c2c(cc3c1C(C1OC(=O)c4c1c([N+](=O)[O-])c(OC)c(OC)c4[N+](=O)[O-])N(C)CC3)OCO2 (stereo not given)
inactive: [3] 101 % of control | [4] 92 % of control | [5] 93 % of control | [6] 91 % of control

CC1=CC2(C)OC(=O)N(c3ccccc3)C2N=C1 (stereo not given)
inactive: [7] 111 % of control | [8] 109 % of control

COc1ccc(CCNC(=O)Cc2ccc(OC)c(OCc3ccccc3)c2)cc1OC
inactive: [9] 95 % of control | [10] 95 % of control | [11] 89 % of control | [12] 86 % of control | [13] 89 % of control

Cc1cccc(/N=C/c2ccccc2O)n1
inactive: [7] 91 % of control | [8] 86 % of control

S=P1(c2ccccc2)C=C(N2CCCC2)CC1 (stereo not given)
inactive: dose: 12.5 mg/kg/injection, schedule: Q01DX009 (ip), vehicle: saline 109 % of control | dose: 25.0 mg/kg/injection, schedule: Q01DX009 (ip), vehicle: saline 110 % of control | [1] 112 % of control | [2] 104 % of control | dose: 200.0 mg/kg/injection, schedule: Q01DX009 (ip), vehicle: saline 96 % of control

Cc1cc(/C=C\c2ccc3ccccc3[n+]2C)c(O)c2ncccc12
inactive: dose: 12.5 mg/kg/injection, schedule: Q01DX009 (ip), vehicle: saline with Tween-80 114 % of control | dose: 25.0 mg/kg/injection, schedule: Q01DX009 (ip), vehicle: saline with Tween-80 106 % of control

CC(CCCN)Nc1cc(O)cc2cccnc12 (stereo not given)
inactive: dose: 100.0 mg/kg/injection, schedule: Q01DX001 (ip), vehicle: saline 92 % of control | dose: 200.0 mg/kg/injection, schedule: Q01DX001 (ip), vehicle: saline 92 % of control | dose: 400.0 mg/kg/injection, schedule: Q01DX001 (ip), vehicle: saline 89 % of control

COc1ccc(/C=C/C(=O)CCC(=O)O)cc1OC
inactive: [7] 100 % of control and 109 % of control | [1] 114 % of control | [8] 108 % of control and 109 % of control | [14] 106 % of control and 110 % of control

COc1c2c(c(OC)c3c1C(=O)c1ccccc1C3O)CC=CC2 (stereo not given)
inactive: [9] 94 % of control | [10] 91 % of control | [11] 91 % of control | [12] 95 % of control | [13] 100 % of control

C/C(=N\NC(=S)N1CCC(C2CCN(C(=S)N/N=C(\C)c3ccccn3)CC2)CC1)c1ccccn1
inactive: dose: 50.0 mg/kg/injection, schedule: Q01DX005 (ip), vehicle: saline with Tween-80 112 % of control and 97 % of control | dose: 100.0 mg/kg/injection, schedule: Q01DX005 (ip), vehicle: saline with Tween-80 114 % of control and 122 % of control | dose: 200.0 mg/kg/injection, schedule: Q01DX005 (ip), vehicle: saline with Tween-80 118 % of control | dose: 400.0 mg/kg/injection, schedule: Q01DX005 (ip), vehicle: saline with Tween-80 120 % of control

CC(=O)CCCCCCCCCCCCCCC1=C(C)C(=O)OC1=O
inactive: [3] 103 % of control | [4] 99 % of control | [5] 89 % of control | dose: 400.0 mg/kg/injection, schedule: Q01DX005 (ip), vehicle: Klucel (hydroxypropylcellulose) (HPC) 96 % of control

O=C1Nc2ccc(Br)cc2/C1=N/n1c(-c2ccccc2)nc2ccccc2c1=O
inactive: [4] 86 % of control | [5] 87 % of control | [6] 100 % of control

Cc1ccc(S(=O)(=O)NC(=O)Nn2c(C)nc3ccccc3c2=O)cc1
inactive: [4] 103 % of control | [5] 102 % of control | [6] 106 % of control

O=C1CSC(c2ccccc2O)N1c1ccc(N2C(=O)CSC2c2ccccc2O)cc1 (stereo not given)
inactive: [15] 90 % of control | [16] 87 % of control | [17] 87 % of control

CC(C)Sc1ncnc2nc[nH]c12
inactive: dose: 50.0 mg/kg/injection, schedule: Q01DX009 (ip), vehicle: saline with Tween-80 100 % of control | dose: 100.0 mg/kg/injection, schedule: Q01DX009 (ip), vehicle: saline with Tween-80 104 % of control | dose: 100.0 mg/kg/injection, schedule: Q04DX003 (ip), vehicle: saline with Tween-80 95 % of control | dose: 200.0 mg/kg/injection, schedule: Q01DX009 (ip), vehicle: saline with Tween-80 118 % of control | dose: 200.0 mg/kg/injection, schedule: Q04DX003 (ip), vehicle: saline with Tween-80 86 % of control

CCn1c2ccccc2c2cc(N)c(N=Nc3cc(OC)c(N=Nc4ccc([N+](=O)[O-])cc4)cc3OC)cc21
inactive: [7] 104 % of control | [8] 105 % of control | [14] 112 % of control

Cc1cc(Cl)nn2cc(CC(=O)O)nc12
inactive: dose: 100.0 mg/kg/injection, schedule: Q01DX001 (ip), vehicle: Klucel (hydroxypropylcellulose) (HPC) 100 % of control | dose: 200.0 mg/kg/injection, schedule: Q01DX001 (ip), vehicle: Klucel (hydroxypropylcellulose) (HPC) 104 % of control | dose: 400.0 mg/kg/injection, schedule: Q01DX001 (ip), vehicle: Klucel (hydroxypropylcellulose) (HPC) 98 % of control

O=S1(=O)C2CCCCC2C2CCCCC21 (stereo not given)
inactive: [15] 108 % of control | [16] 106 % of control | [17] 113 % of control

Cc1cc(NS(=O)(=O)c2ccc(NC(=O)NCCCl)cc2)no1
inactive: dose: 30.0 mg/kg/injection, schedule: Q01DX005 (ip), vehicle: Klucel (hydroxypropylcellulose) (HPC) 99 % of control | dose: 60.0 mg/kg/injection, schedule: Q01DX005 (ip), vehicle: Klucel (hydroxypropylcellulose) (HPC) 98 % of control | dose: 120.0 mg/kg/injection, schedule: Q01DX005 (ip), vehicle: Klucel (hydroxypropylcellulose) (HPC) 100 % of control | dose: 240.0 mg/kg/injection, schedule: Q01DX005 (ip), vehicle: Klucel (hydroxypropylcellulose) (HPC) 100 % of control

Cc1c2ccncc2c(C)c2c1[nH]c1ccc(F)cc12
inactive: dose: 16.25 mg/kg/injection, schedule: Q04DX002 (ip), vehicle: Klucel (hydroxypropylcellulose) (HPC) 106 % of control | dose: 32.5 mg/kg/injection, schedule: Q04DX002 (ip), vehicle: Klucel (hydroxypropylcellulose) (HPC) 106 % of control

CCCCC(=O)C(=O)c1ccc(O)cc1O
inactive: [7] 116 % of control | [8] 114 % of control | [14] 110 % of control
